Values after ≈ are worked out from the molar mass of the structure shown. Where two headings read alike, the source gives them in different places.
Experiments:
Type in all cases: cell-based
Salm. typhi 0901 = experiment: microbe, parasite or virus in culture; details: Salmonella enterica, 18 h; Table 2; Salm. typhi 0901 (Gram negative)
Protocol: (§1) After sterilisation at 120° C., the pH was 6.8.
(§2) The minimum inhibitory concentrations (M.I.C.) were determined by dilution of the test compounds in this mixture, the concentration ranging from 0.05 to 100 μg/cm^3 in a geometric progression with a factor of 2.
(§3) The inoculation of the dishes was carried out by means of a multiple inoculator with 10^-3 dilutions of 18 hour old broth cultures.
(§4) The dishes were placed in an oven at 37° C. and the readings were taken afer an incubation time of 18 hours. The M.I.C. was taken as the lowest concentration which inhibited a culture.

Staph. 209 P = experiment: M.I.C. in vitro, nutrient agar dilution; details: 18 h; Table 2; Staph. 209 P (Gram positive); read-out: M.I.C.
Protocol: as §1, §2, §3, §4

Strepto D.M. 19 = experiment: M.I.C. in vitro, nutrient agar dilution; details: 18 h; Table 2; Strepto D.M. 19 (Gram positive); read-out: M.I.C.
Protocol: as §1, §2, §3, §4

Pr. vulgaris 12-53 = experiment: M.I.C. in vitro, nutrient agar dilution; details: Proteus vulgaris, 1253, 18 h; Table 2; Pr. vulgaris 12-53 (Gram negative); read-out: M.I.C.
Protocol: as §1, §2, §3, §4

Ps. aeruginosa A.22 = experiment: M.I.C. in vitro, nutrient agar dilution; details: Pseudomonas aeruginosa, 18 h; Table 2; Ps. aeruginosa A.22 (Gram negative); read-out: M.I.C.
Protocol: as §1, §2, §3, §4

Staph. 9.144 = experiment: M.I.C. in vitro, nutrient agar dilution; details: 18 h; Table 2; Staph. 9.144 (Gram positive); read-out: M.I.C.
Protocol: as §1, §2, §3, §4

Esch. coli 111 B4 = experiment: M.I.C. in vitro, nutrient agar dilution; details: Escherichia coli, 18 h; Table 2; Esch. coli 111 B4 (Gram negative)
Protocol: as §1, §2, §3, §4

Klebs. pneum. 10.031 = experiment: M.I.C. in vitro, nutrient agar dilution; details: 18 h; Table 2; Klebs. pneum. 10.031 (Gram negative); read-out: M.I.C.
Protocol: as §1, §2, §3, §4

Providentia 0223 = experiment: M.I.C. in vitro, nutrient agar dilution; details: 18 h; Table 2; Providentia 0223 (Gram negative); read-out: M.I.C.
Protocol: as §1, §2, §3, §4

Pr. morganii A.236 = experiment: M.I.C. in vitro, nutrient agar dilution; details: Morganella morganii, 18 h; Table 2; Pr. morganii A.236 (Gram negative); read-out: M.I.C.
Protocol: as §1, §2, §3, §4

Arizona 6.211 = experiment: M.I.C. in vitro, nutrient agar dilution; details: 18 h; Table 2; Arizona 6.211 (Gram negative); read-out: M.I.C.
Protocol: as §1, §2, §3, §4

Esch. coli 54.127 O.M.S. = experiment: M.I.C. in vitro, nutrient agar dilution; details: Escherichia coli, 18 h; Table 2; Esch. coli 54.127 O.M.S. (Gram negative); read-out: M.I.C.
Protocol: as §1, §2, §3, §4

Sh. sonnei I.P.S. = experiment: M.I.C. in vitro, nutrient agar dilution; details: Shigella sonnei, 18 h
Protocol: as §1, §2, §3, §4

Ps. aeruginosa 72.345 = experiment: M.I.C. in vitro, nutrient agar dilution; details: Pseudomonas aeruginosa, 18 h; Table 2; Ps. aeruginosa 72.345 (Gram negative); read-out: M.I.C.
Protocol: as §1, §2, §3, §4

Strepto A 561 = experiment: M.I.C. in vitro, nutrient agar dilution; details: 18 h; Table 2; Strepto A 561 (Gram positive)
Protocol: as §1, §2, §3, §4

Serratia = experiment: M.I.C. in vitro, nutrient agar dilution; details: 18 h, Table 2, Berratia (Gram negative), read-out: M.I.C.
Protocol: as §1, §2, §3, §4

Bord. bronchis. 4.617 = experiment: M.I.C. in vitro, nutrient agar dilution; details: 18 h; Table 2; Bord. bronchis. 4.617 (Gram negative); read-out: M.I.C.
Protocol: as §1, §2, §3, §4

B. subtilis = experiment: M.I.C. in vitro, nutrient agar dilution; details: Bacillus subtilis, 18 h; Table 2; B. subtilis (Gram positive); read-out: M.I.C.
Protocol: as §1, §2, §3, §4

S. enteritidis Danysz = experiment: M.I.C. in vitro, nutrient agar dilution; details: Salmonella enterica, 18 h; Table 2; S. enteritidis Danysz (Gram negative); read-out: M.I.C.
Protocol: as §1, §2, §3, §4

Pr. mirabilis Nig = experiment: M.I.C. in vitro, nutrient agar dilution; details: Proteus mirabilis, 18 h; Table 2; Pr. mirabilis Nig (Gram negative); read-out: M.I.C.
Protocol: as §1, §2, §3, §4

S. oranienburg 1066 = experiment: M.I.C. in vitro, nutrient agar dilution; details: Salmonella enterica, 18 h; Table 2; S. oranienburg 1066 (Gram negative); read-out: M.I.C.
Protocol: as §1, §2, §3, §4

Esch. coli 95 I.S.M. = experiment: M.I.C. in vitro, nutrient agar dilution; details: Escherichia coli, 18 h; Table 2; Esch. coli 95 I.S.M. (Gram negative); read-out: M.I.C.
Protocol: as §1, §2, §3, §4

[1] = Table 2, Sh. sonnei I.P.S. (Gram negative), read-out: M.I.C.

Structure (SMILES) | MIC (Salm. typhi 0901) | MIC (Staph. 209 P) | MIC (Strepto D.M. 19) | MIC (Pr. vulgaris 12-53) | MIC (Ps. aeruginosa A.22) | MIC (Staph. 9.144) | MIC (Esch. coli 111 B4) | MIC (Klebs. pneum. 10.031) | MIC (Providentia 0223) | MIC (Pr. morganii A.236) | MIC (Arizona 6.211) | MIC (Esch. coli 54.127 O.M.S.) | MIC (Ps. aeruginosa 72.345) | MIC (Strepto A 561) | MIC (Serratia) | MIC (Bord. bronchis. 4.617) | MIC (B. subtilis) | MIC (S. enteritidis Danysz) | MIC (Pr. mirabilis Nig) | MIC (S. oranienburg 1066) | further results
CCn1cc(C(=O)O)c(=O)c2cc(Cl)c(N3CCN(C)CC3)cc21 [Example 1, 6-Chloro-1-ethyl-7-(4-methylpiperazinyl)-4-oxo-1,4-dihydro-quinoline-3-carboxylic acid] | 0.4 to 1.6 µg/mL (≈ 1.14 to 4.57 µM) | 0.4 µg/mL (≈ 1.14 µM) | 1.6 to 3.1 µg/mL (≈ 4.57 to 8.86 µM) | 0.4 to 1.6 µg/mL (≈ 1.14 to 4.57 µM) | 3.1 to 6.2 µg/mL (≈ 8.86 to 17.7 µM) | 0.4 to 1.6 µg/mL (≈ 1.14 to 4.57 µM) | 0.2 to 0.4 µg/mL (≈ 0.572 to 1.14 µM) | 0.2 µg/mL (≈ 0.572 µM) | 3.1 to 12.5 µg/mL (≈ 8.86 to 35.7 µM) | 0.2 to 0.8 µg/mL (≈ 0.572 to 2.29 µM) | 0.2 to 0.8 µg/mL (≈ 0.572 to 2.29 µM) | 0.2 to 0.4 µg/mL (≈ 0.572 to 1.14 µM) | 3.1 to 6.2 µg/mL (≈ 8.86 to 17.7 µM) | 12.5 to 50 µg/mL (≈ 35.7 to 143 µM) | 1.6 to 3.1 µg/mL (≈ 4.57 to 8.86 µM) | 1.6 to 6.2 µg/mL (≈ 4.57 to 17.7 µM) | 0.2 to 0.4 µg/mL (≈ 0.572 to 1.14 µM) | 0.4 to 1.6 µg/mL (≈ 1.14 to 4.57 µM) | 0.4 to 0.8 µg/mL (≈ 1.14 to 2.29 µM) | 12.5 to 25 µg/mL (≈ 35.7 to 71.5 µM) | MIC (Sh. sonnei I.P.S.): 0.2 to 0.85 µg/mL (≈ 0.572 to 2.43 µM); MIC (Esch. coli 95 I.S.M.): 0.4 to 0.8 µg/mL (≈ 1.14 to 2.29 µM)
CCn1cc(C(=O)O)c(=O)c2cc(Cl)c(N3CCNCC3)cc21 [Example 3, 6-Chloro-1-ethyl-4-oxo-7-piperazinyl-1,4-dihydro-quinoline-3-carboxylic acid] | 0.2 µg/mL (≈ 0.596 µM) | 0.4 to 0.8 µg/mL (≈ 1.19 to 2.38 µM) | 1.6 to 3.1 µg/mL (≈ 4.76 to 9.23 µM) | 0.2 µg/mL (≈ 0.596 µM) | 1.6 to 3.1 µg/mL (≈ 4.76 to 9.23 µM) | 0.4 µg/mL (≈ 1.19 µM) | 0.2 µg/mL (≈ 0.596 µM) | 0.2 µg/mL (≈ 0.596 µM) | 1.6 to 3.1 µg/mL (≈ 4.76 to 9.23 µM) | 0.2 µg/mL (≈ 0.596 µM) | 0.2 µg/mL (≈ 0.596 µM) | 0.2 µg/mL (≈ 0.596 µM) | 1.6 to 3.1 µg/mL (≈ 4.76 to 9.23 µM) | 6.2 µg/mL (≈ 18.5 µM) | 3.1 to 12.5 µg/mL (≈ 9.23 to 37.2 µM) | 0.2 to 12.5 µg/mL (≈ 0.596 to 37.2 µM) | 0.2 to 0.4 µg/mL (≈ 0.596 to 1.19 µM) | 0.2 µg/mL (≈ 0.596 µM) | 0.2 µg/mL (≈ 0.596 µM) | 6.2 to 12.5 µg/mL (≈ 18.5 to 37.2 µM) | MIC (Sh. sonnei I.P.S.; [1]): 0.2 µg/mL (≈ 0.596 µM); MIC (Esch. coli 95 I.S.M.): 0.2 µg/mL (≈ 0.596 µM)
CCn1cc(C(=O)O)c(=O)c2cc(Cl)c(N3CCN(CCO)CC3)cc21 [Example 4, 6-chloro-1-ethyl-7-[4-(β-hydroxyethyl)-piperazinyl]-4-oxo-1,4-dihydro-quinoline-3-carboxylic acid] | 3.1 µg/mL (≈ 8.16 µM) | 0.4 µg/mL (≈ 1.05 µM) | 6.2 µg/mL (≈ 16.3 µM) | 1.6 µg/mL (≈ 4.21 µM) | 12.5 µg/mL (≈ 32.9 µM) | 0.4 µg/mL (≈ 1.05 µM) | 3.1 µg/mL (≈ 8.16 µM) | 0.4 µg/mL (≈ 1.05 µM) | 25 µg/mL (≈ 65.8 µM) | 1.6 µg/mL (≈ 4.21 µM) | 1.6 µg/mL (≈ 4.21 µM) | 3.1 µg/mL (≈ 8.16 µM) | 12.5 µg/mL (≈ 32.9 µM) | 6.2 µg/mL (≈ 16.3 µM) | 25 µg/mL (≈ 65.8 µM) | 6.2 µg/mL (≈ 16.3 µM) | 6.2 µg/mL (≈ 16.3 µM) | 3.1 µg/mL (≈ 8.16 µM) | 3.1 µg/mL (≈ 8.16 µM) | 25 µg/mL (≈ 65.8 µM) | MIC (Sh. sonnei I.P.S.; [1]): 0.8 µg/mL (≈ 2.11 µM); MIC (Esch. coli 95 I.S.M.): 1.6 µg/mL (≈ 4.21 µM)

— patent US4292317A, “1,4-Dihydro-quinoline-3-carboxylic acid derivatives, process for their preparation and compositions containing them” (Laboratorie Roger Bellon, priority 1977, dated 1981)
